In PMC11364104, “Discovery of SARS-CoV-2 papain-like protease (PL^pro) inhibitors with efficacy in a murine infection model” (Science Advances, 2024):
Where two headings read alike, the source gives them in different places.

Experiments:
Rat pharmacokinetics = assay type: in vivo, Wistar-Hannover rat; conditions: for Vd: rat, iv, 1 mg/kg, read-out: Vdss
Experimental: Figure S1. Setting Up the Collaboration Workflow and Operations
Preclinical Pharmacokinetics Studies
All activities involving animals were carried out in accordance with federal, state, local and institutional guidelines governing the use of laboratory animals in research in AAALAC accredited facilities and were reviewed and approved by Pfizer’s or Bioduro’s Institutional Animal Care and Use committee.
Mouse pharmacokinetic studies were done at BioDuro Pharmaceutical Product Development Inc. (Shanghai, PRC); male C57BL6 mice were purchased from Vital River (Beijing, China) and were typically 7-9 weeks of age at the time of dosing. During the pharmacokinetic studies all animals were housed individually. Access to food and water was provided ad libitum (i.e., subjects were dosed in the fed state). Compounds were administered intravenously (iv) via tail vein (n=2) dosed as a solution (1 mg/kg, 3 mL/kg) or via oral gavage as a solution (10 mg/kg, 3 mL/kg and 30 mg/kg, 3mL/kg) or as a suspension (15 mg/kg, 10 mL/kg; 50 mg/kg, 10 mL/kg; and 150 mg/kg, 10mL/kg). Dosing solutions were prepared immediately before dosing. The composition of each dosing vehicle is provided in Tables S5 and S6. Isoflurane was administered as anesthesia at 1-2% dose prior to collecting blood samples. Serial blood samples were collected via the retroorbital capillary at predetermined timepoints after dosing. Animals were monitored for pain or distress throughout the study, with at least daily monitoring during normal husbandry prior to study start. At the completion of the study, animals were euthanized by overdose of inhaled carbon dioxide. Blood samples were collected into tubes containing K2EDTA and stored on ice until centrifugation to obtain plasma, which was stored frozen at - 20 °C or lower until bioanalysis.
Rat pharmacokinetic studies were done at BioDuro Pharmaceutical Product Development Inc. (Shanghai, PRC); jugular vein- cannulated male Wistar-Hannover rats were purchased
(1 picture or pasted object on this page, not shown here) […]
from Vital River (Beijing, China) and were typically 7-9 weeks of age at the time of dosing.
During the pharmacokinetic studies all animals were housed individually. Access to food and water was provided ad libitum (i.e., subjects were dosed in the fed state). In the instances where oral (po) dose was administered in the fed state, with ad libitum access to food and water. Compounds were administered intravenously (iv) via the tail vein (n = 2) dosed as a solution (1 mg/kg, 3 ml/kg) or via oral gavage as a solution (10 mg/kg, 10 ml/kg). Dosing solutions were prepared immediately before dosing. The composition of each dosing vehicle […]
Serial blood samples were collected via the jugular vein cannula at […]
centrifugation to obtain plasma, which was stored frozen at - 20 °C or lower.
Dog pharmacokinetic studies were done at Pfizer (Groton, CT). All procedures performed on beagle dogs were in accordance with regulations and established guidelines and were reviewed and approved by an Institutional Animal Care and Use Committee through an ethical review process. Male Beagle dogs were purchased from Marshall Bioresources (North Rose, NY); subjects 3 years of age were used in pharmacokinetics studies. For each study (n=2), compounds were dosed iv by cephalic vein as a solution (0.5 mg/kg, 1 mL/kg) or via oral gavage as a suspension (3 mg/kg, 5 mL/kg). In the instances where oral (po) dose was administered in the fed state, dogs were fed a couple hours before dosing. In the instances where the IV dose was administered in the fasted state, dogs were fasted over night and fed 4 hours post dose. Subjects were monitored for pain or distress throughout the study followed by at least daily monitoring while off study. The iv dosing vehicle was optimized such that the compounds were in solution and stable for at least 24 h. Serial blood samples were collected via the jugular vein at predefined time points post-dose. Blood […]

Adenosine A2a = biological target: T1, Adenosine A2a (Homo sapiens, UniProt P29274); experiment: CEREP functional agonism; assay type: cell-based; conditions: 30 µM
T1 construct: purchased Eurofins Cerep
T1 sequence (P29274 whole entry): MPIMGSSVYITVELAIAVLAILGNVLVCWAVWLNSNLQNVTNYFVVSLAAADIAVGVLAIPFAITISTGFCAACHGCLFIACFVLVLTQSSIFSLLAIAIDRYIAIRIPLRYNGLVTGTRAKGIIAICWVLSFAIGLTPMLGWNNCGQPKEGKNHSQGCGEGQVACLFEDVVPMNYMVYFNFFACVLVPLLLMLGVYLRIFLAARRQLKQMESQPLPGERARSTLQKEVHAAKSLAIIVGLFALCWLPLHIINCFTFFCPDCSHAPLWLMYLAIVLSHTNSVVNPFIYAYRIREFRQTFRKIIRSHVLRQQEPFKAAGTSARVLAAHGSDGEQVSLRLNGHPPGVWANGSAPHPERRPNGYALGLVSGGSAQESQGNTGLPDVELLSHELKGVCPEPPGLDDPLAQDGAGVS

[1] = Wistar-Hannover, plasma, Male Wistar Hanover Rat, 1.0 mg/kg iv, solution, mean n=2
[2] = Wistar-Hannover, plasma, Male Wistar Hanover Rat, 10 mg/kg po, solution, mean n=2

Structure (SMILES): Cc1ccc(N2CCN(C)CC2)cc1C(=O)NC1(c2cc(-c3cnn(C)c3)nc3ccccc23)CC1 [Compound 4]
- Oral F (Rat pharmacokinetics; Male Wistar Hanover Rat, 10 mg/kg po, solution, mean n=2): 69.7%
- AUC(0-inf) (Rat pharmacokinetics; [1]): 668 ng·h/mL
- half-life (Rat pharmacokinetics; [1]): 3.59 h
- clearance (Rat pharmacokinetics; Wistar-Hannover, plasma, Male Wistar Hanover Rat, 1.0 mg/kg iv, solution, mean n=2, read-out: CLp): 25.2 mL/min/kg
- AUC(0-inf) (Rat pharmacokinetics; [2]): 4650 ng·h/mL
- Cmax (Rat pharmacokinetics; [2]): 435 ng/mL
- Tmax (Rat pharmacokinetics; [2]): 3 h
- half-life (Rat pharmacokinetics; [2]): 3.19 h
- bioavailability (Rat pharmacokinetics; male, Wistar-Hannover, plasma, po, 10 mg/kg, rat (r), read-out: Oral F (%)): 69.7%
- Vd (Rat pharmacokinetics; male, Wistar-Hannover, plasma, Male Wistar Hanover Rat, 1.0 mg/kg iv, solution, mean n=2): 4.42 L/kg
- Vd (Rat pharmacokinetics; male, Wistar-Hannover, plasma, rat (r), intravenous): 4.4 L/kg
- % response (Adenosine A2a): 0%
